Read-outs that look alike come from different tables or passages of the source.
Tests used:
HIV-1 (strain IIIB) = test: MT4 cell assay, antiviral HIV activity (propidium iodide); format: cell-based; details: Human immunodeficiency virus 1, IIIB
Experimental: Antiviral HIV activity and compound-induced cytotoxicity were measured in parallel by means of a propidium iodide based procedure in the human T-cell lymphotropic virus transformed cell line MT4. Aliquots of the test compounds were serially diluted in medium (RPMI 1640, 10% fetal calf serum (FCS), and gentamycin) in 96-well plates (Costar 3598) using a Cetus Pro/Pette. Exponentially growing MT4 cells were harvested and centrifuged at 1000 rpm for 10 min in a Jouan centrifuge (model CR 4 12). Cell pellets were resuspended in fresh medium (RPMI 1640, 20% FCS, 20% IL-2, and gentamycin) to a density of 5×10^5 cells/ml. Cell aliquots were infected by the addition of HIV-1 (strain IIIB) diluted to give a viral multiplicity of infection of 100×TCID50. A similar cell aliquot was diluted with medium to provide a mock-infected control. Cell infection was allowed to proceed for 1 hr at 37° C. in a tissue culture incubator with humidified 5% CO2 atmosphere. After the 1 hr incubation the virus/cell suspensions were diluted 6-fold with fresh medium, and 125 μl of the cell suspension was added to each well of the plate containing pre-diluted compound. Plates were then placed in a tissue culture incubator with humidified 5% CO2 for 5 days. At the end of the incubation period, 27 μl of 5% Nonidet-40 was added to each well of the incubation plate. After thorough mixing with a Costar multitip pipetter, 60 μl of the mixture was transferred to filter-bottomed 96-well plates. The plates were analyzed in an automated assay instrument (Screen Machine, Idexx Laboratories). The control and standard used was 3′-azido-3′-deoxythymidine tested over a concentration range of 0.01 to 1 μM in every assay. […] The assay-makes use of a propidium iodide dye to estimate the DNA content of each well.
The antiviral effect of a test compound is reported as an IC50, i.e. the inhibitory concentration that would produce a 50% decrease in the HIV-induced cytopathic effect. This effect is measured by the amount of test compound required to restore 50% of the cell growth of HIV-infected MT4 cells, compared to uninfected MT4 cell controls. IC50 was calculated by RoboSage, Automated Curve Fitting Program, version 5.00, 10 Jul. 1995.
For each assay plate, the results (relative fluorescence units, rfU) of wells containing uninfected cells or infected cells with no compound were averaged, respectively. For measurements of compound-induced cytotoxicty, results from wells containing various compound concentrations and uninfected cells were compared to the average of uninfected cells without compound treatment. Percent of cells remaining is determined by the following formula: Percent of cells remaining=(compound−treated uninfected cells, rfU/untreated uninfected cells)×100.
A level of percent of cells remaining of 79% or less indicates a significant level of direct compound-induced cytotoxicity for the compound at that concentration. When this condition occurs the results from the compound-treated infected wells at this concentration are not included in the calculation of IC50.
For measurements of compound antiviral activity, results from wells containing various compound concentrations and infected cells are compared to the average of uninfected and infected cells without compound treatment. Percent inhibition of virus is determined by the following formula: Percent inhibition of virus=(1−((ave. untreated uninfected cells−treated infected cells)/(ave. untreated uninfected cells−ave. untreated infected cells)))×100

NEV-R = test: as above; format: cell-based; details: Human immunodeficiency virus 1, MT4, read-out: IC50 (nM) Range
HIV-2 = test: as above; format: cell-based; details: Human immunodeficiency virus 2, Virus Type HIV-2, read-out: IC50 (nM) Range
[1] = test system: isogenic HIV-1 RT mutant virus K103N/Y181C; test: HeLa cell assay (HIV-LTR β-galactosidase reporter); format: cell-based; details: Human immunodeficiency virus 1, HeLa, read-out: IC50 (nM) Range
Experimental: (§1) The HeLa cell assay was performed according to a modification of Kimpton J. and Emerman M., Detection of replication-competent and pseudotyped human immunodeficiency virus with a sensitive cell line on the basis of activation of an integrated β-galactosidase gene, J. Virol. 66:2232-2239 (1992), in which HIV-1 infection is detected by the activation of an HIV-LTR driven β-galactosidase reporter that is integrated into the genome of a CD4^+ HeLa cell line. Quantitation of β-galactosidase is achieved by measuring the activation of a chemiluminescent substrate (Tropix). The concentration of each compound required to inhibit 50% (IC50) of the HIV-1 induced β-galactosidase signal, relative to untreated controls, was determined for each isogenic, recombinant virus.
(§2) HeLa-CD4-LTR-β-gal cells were obtained from the NIH AIDS Research and Reference Reagent Program. Cells were propagated in DMEM containing 10% fetal bovine serum, 0.2 mg/ml geneticin and 0.1 mg/ml hygromycin B. Cells were routinely split by trypsinization when confluency reached 80% (approximately every 2 to 3 days).
(§3) DNA encoding the HIV-1 reverse transcriptase was subcloned from a M13 phage into a general shuttle vector, pBCSK+, as a ˜1.65 kbp EcoRI/HindIII ended DNA fragment. The HIV DNA insert of the resulting plasmid, pRT2, was completely sequenced on both strands prior to use in site directed mutagenesis experiments. Specific amino acid replacements were made using Stratagene Quick Change reagents and mutagenic oligonucleotides from Oligos. Following mutagenesis, the entire mutant RT coding sequence was verified by sequencing both DNA strands.
(§4) Mutant HIV-1 strains were isolated by a modified Recombinant Virus Assay (Kellam P. and Larder B., Recombinant virus assay: a rapid, phenotypic assay for assessment of drug susceptibility of human immunodeficiency virus type 1 isolates, Antimicrobial Agents and Chemotherapy, 38:23-30, 1994). 1×10^7 Jurkat T-cells (maintained in RPMI containing 10% fetal bovine serum, split 1:5 every 5 to 6 days) were co-transfected with EcoRI/HindIII digested mutant RT plasmid and Bst EII-digested HIV-1HXB2ΔRT DNA in the presence of DMRIE-C transfection reagent (Gibco) according to supplier's recommended protocol. Each mutant RT coding sequence was crossed into the RT-deleted HIV-1 viral DNA backbone by in vivo homologous recombination. Transfected cell cultures were expanded and monitored until syncitia formation and CPE were extensive. Virus was harvested by clear spin of the culture supernatants and frozen at −80 C as primary stock. Recombinant progeny virus was sequenced in the RT region to confirm the mutant genotype. Virus stocks were further expanded by infection of Jurkat cells, harvested and stored as frozen aliquots. Stocks were titered in HeLa MAGI cells for assay.
(§5) The HIV-1HXB2 mutants were titered in the HeLa MAGI assay system to determine the relative light units (RLU) per ml, a measure of infectivity relevant for this assay system. Virus stocks were diluted in a 2-fold series into DMEM containing 10% fetal bovine serum plus 20 ug/ml DEAE-dextran and assayed as described in the Experimental Protocol section, below.
(§6) 96-well microtiter plate(s) (Costar #3598) were seeded with 3×10^3 HeLa-CD4-LTR-β-gal in 100 μl DMEM containing 10% fetal bovine serum. Plates were placed in a 37° C., 5% CO2 humidified incubator overnight. The following day, mutant virus stocks were thawed in a room temperature water bath and diluted into DMEM containing 10% fetal bovine serum and 20 μg/ml DEAE-dextran to achieve an input of 1500 to 2000 RLU/ml. All media was removed with an 8 channel manifold aspirator and 35 μl (50 to 70 total RLUs) of diluted virus was added to each well for virus adsorption. Plates were placed in a 37° C., 5% CO2 humidified incubator for 1.5 to 2 hours.
(§7) Compound titration plates were prepared at 1.35× final concentration during the virus adsorption period. […]

[2] = test system: isogenic HIV-1 RT mutant virus K103N; test: HeLa cell assay (HIV-LTR β-galactosidase reporter); format: cell-based; details: Human immunodeficiency virus 1, HeLa, read-out: IC50 (nM) Range
Experimental: as §1, §2, §3, §4, §5, §6, §7

WTRVA = test: HeLa cell assay (HIV-LTR β-galactosidase reporter); format: cell-based, HIV-1; details: Human immunodeficiency virus 1, Virus Type WTRVA, read-out: IC50 (nM) Range
Experimental: as §1, §2, §3, §4, §5, §6, §7

[3] = test system: isogenic HIV-1 RT mutant virus V106A; test: HeLa cell assay (HIV-LTR β-galactosidase reporter); format: cell-based; details: Human immunodeficiency virus 1, HeLa, read-out: IC50 (nM) Range
Experimental: as §1, §2, §3, §4, §5, §6, §7

[4] = test system: isogenic HIV-1 RT mutant virus Y181C; test: HeLa cell assay (HIV-LTR β-galactosidase reporter); format: cell-based; details: Human immunodeficiency virus 1, HeLa, read-out: IC50 (nM) Range
Experimental: as §1, §2, §3, §4, §5, §6, §7

[5] = test system: isogenic HIV-1 RT mutant virus V106A/Y181C; test: HeLa cell assay (HIV-LTR β-galactosidase reporter); format: cell-based; details: Human immunodeficiency virus 1, HeLa, read-out: IC50 (nM) Range
Experimental: as §1, §2, §3, §4, §5, §6, §7

[6] = test system: isogenic HIV-1 RT mutant virus V106I/Y181C; test: HeLa cell assay (HIV-LTR β-galactosidase reporter); format: cell-based; details: Human immunodeficiency virus 1, HeLa, read-out: IC50 (nM) Range
Experimental: as §1, §2, §3, §4, §5, §6, §7

[7] = test system: isogenic HIV-1 RT mutant virus V106I; test: HeLa cell assay (HIV-LTR β-galactosidase reporter); format: cell-based; details: Human immunodeficiency virus 1, HeLa, read-out: IC50 (nM) Range
Experimental: as §1, §2, §3, §4, §5, §6, §7

[8] = Virus Type HIV-1, Assay MT4, read-out: IC50 (nM) Range

SMILES | IC50 (HIV-1 (strain IIIB); [8]) [nM] | IC50 (NEV-R) [nM] | IC50 [1] [nM] | IC50 [2] [nM] | IC50 (WTRVA) [nM] | IC50 [4] [nM] | also measured
Cc1cc(S(N)(=O)=O)ccc1NC(=O)COc1ccc(Cl)cc1C(=O)c1cc(Cl)cc(Cl)c1 [Compound 79] | < 10 | < 10 | < 10 | < 10 | – | – | IC50 (HIV-2): 1000 to 3000 nM
O=C(c1cc(F)cc(F)c1)c1cc(Cl)ccc1OCC(=O)N1CCc2ccccc21 [Compound 276] | – | – | – | – | – | – | melting point: 158 to 160 °C
Cc1cc(S(N)(=O)=O)ccc1NC(=O)COc1ccc(Cl)cc1C(=O)c1cc(C#N)cc(C#N)c1 [Compound 601] | < 10 | < 10 | – | < 10 | < 10 | < 10 | IC50 [3]: < 10 nM
O=C(COc1ccc(Cl)cc1C(=O)c1nccs1)Nc1ccc2[nH]ncc2c1 [Compound 5] | 11 to 100 | 101 to 1000 | – | – | – | – | –
O=C(COc1ccc(Cl)cc1C(=O)c1cc2ccccc2o1)Nc1ccccc1 [Compound 9] | 11 to 100 | 101 to 1000 | – | – | – | – | –
O=C(COc1ccc(Cl)cc1C(=O)c1cc(F)cc(F)c1)Nc1ccc2c(c1)CS(=O)(=O)C2 [Compound 277] | – | – | – | – | – | – | melting point: 197 to 199 °C
Cc1cc(N2CC[S+]([O-])CC2)ccc1NC(=O)COc1ccc(Cl)cc1C(=O)c1cccs1 [Compound 122] | < 10 | 11 to 100 | 1000 to 3000 | 11 to 100 | 11 to 100 | 101 to 1000 | –
Cc1cc(OCCCN2CCOCC2)ccc1NC(=O)COc1ccc(Cl)cc1C(=O)c1cccs1 [Compound 120] | 11 to 100 | 11 to 100 | 101 to 1000 | 11 to 100 | 11 to 100 | 11 to 100 | –
Cc1cn([C@H]2C[C@H](N=[N+]=[N-])[C@@H](CO)O2)c(=O)[nH]c1=O [3′-azido-3′-deoxythymidine, reference compound] | – | – | – | – | – | – | IC50 (HIV-1 (strain IIIB); control and standard tested in every MT4 assay, 0.01 to 1 μM, read-out: expected range of IC50 values): 40 to 120 nM
O=C(COc1ccc(Cl)cc1C(=O)c1ccccc1)Nc1ccc2cn[nH]c2c1 [Compound 387] | < 10 | 11 to 100 | 11 to 100 | < 10 | < 10 | 11 to 100 | –
CS(=O)(=O)Nc1ccc(NC(=O)COc2ccc(Cl)cc2C(=O)c2ccccc2)cc1 [Compound 338] | < 10 | 11 to 100 | 101 to 1000 | 11 to 100 | < 10 | 11 to 100 | –
O=C(COc1ccc(Cl)cc1C(=O)c1ccco1)Nc1ccc2cn[nH]c2c1 [Compound 435] | < 10 | 11 to 100 | 101 to 1000 | < 10 | < 10 | 11 to 100 | –
O=C(COc1ccc(Cl)cc1C(=O)c1ccccc1)Nc1ccc(-n2cncn2)cc1 [Compound 103] | 11 to 100 | 101 to 1000 | – | 11 to 100 | – | – | –
Cc1cc(Cl)cc(C(=O)c2cc(Cl)ccc2OCC(=O)Nc2ccc(S(N)(=O)=O)cc2C)c1 [Compound 483] | 11 to 100 | < 10 | – | 101 to 1000 | 11 to 100 | 101 to 1000 | IC50 [5]: 101 to 1000 nM; IC50 [6]: 11 to 100 nM; IC50 [7]: < 10 nM
O=C(COc1ccc(Cl)cc1C(=O)c1cc(F)cc(F)c1)Nc1ccc(Cl)nc1 [Compound 275] | – | – | – | – | – | – | melting point: 198 to 200 °C
COc1ccc(NC(=O)COc2ccc(Cl)cc2C(=O)c2cc(F)cc(F)c2)cn1 [Compound 274] | – | – | – | – | – | – | melting point: 185 to 187 °C
Cc1cc(N2CC[S+]([O-])CC2)ccc1NC(=O)COc1ccc(Cl)cc1C(=O)c1nccs1 [Compound 8] | 11 to 100 | 101 to 1000 | – | – | – | – | –
O=C(COc1ccc(Cl)cc1C(=O)c1nccs1)Nc1ccccc1 [Compound 1] | 101 to 1000 | 1000 to 3000 | – | – | – | – | –
